Experimental data from US4853221A, “Method for treating non-small cell lung cancer, head and neck cancers and breast cancer” (Warner-Lambert Company, priority 1987, dated 1989).

Legend:
Ovarian tumor = assay: Human tumor cloning system, ovarian tumors; type: cell-based; conditions: one hour, 6 specimens
Text: (§1) The activity of trimetrexate was compared with that of methotrexate in tests with a human tumor cloning system (Latham, et al., Proc. Am. Assoc. Cancer Res., 24: 278 (1983)). The data from these tests appear in Table III were the activities are expressed as the numbers of tumors with 50% or greater reduction in tumor colony forming units after one hour exposure to the drug.

Colon tumor = assay: Human tumor cloning system, colon tumors; type: cell-based; conditions: one hour, 9 specimens
Text: as §1

Colon 38 = assay: Antitumor activity against colon adenocarcinoma 38 in mice; type: in vivo, mouse
Walker-256 = assay: Inhibition of Walker-256 cell growth in vitro; type: cell-based; conditions: Mus musculus, 48 h; Murine Walker-256; read-out: ED50 (the source's name)
Description: (§2) Two leukemia cell lines (L1210 and L5178Y) and two solid tumor cell lines (Sarcoma 180 and Walker 256) were used in these studies.
(§3) Logarithmically growing L1210 cells (approximately 3×10^5 cells/ml) were diluted with Fischer's medium (containing 10% horse serum) to an approximate concentration of 5×10^4 cells/ml. Cells were planted in duplicate into 15 ml culture tubes containing either no drug or various amounts of drug, and incubated for 48 hours at 37° C. before being counted.
(§4) Trimetrexate was also evaluated in a similar manner side-by-side with methotrexate for its effect on the growth of three additional murine cell lines (L5178Y, Sarcoma-180, and Walkler-256) and three human cell lines (acute myelogenous leukemia K-562, T-cell 8402, and B-cell 8392), propagated in vitro.

dihydrofolate reductase = assay: Inhibition of dihydrofolate reductase; type: biochemical
[1] = test system: metastatic squamous cell cancer of the head and neck; assay: Phase II trial, metastatic squamous cell cancer of the head and neck; type: in vivo, human
Description: The efficacy and safety of trimetrexate in the treatment of patients with metastatic squamous cell cancer of the head and neck was evaluated in an 11-center Phase II study.
The primary sites of disease in the patients included head and neck (not otherwise specified), hypopharynx, floor of the mouth, oropharynx, tongue, and other parts of the mouth, nasal cavity, and larynx.
Patients were initially treated intravenously with 8 mg/m^2 /day of trimetrexate on Days 1 through 5 of a 21-day treatment cycle. Patients were evaluated after each treatment course and were withdrawn from the study if progressive disease was documented. Patients were eligible to received six courses of treatment if stable disease was documented, or were eligible to receive continued treatment with trimetrexate if a response was documented.

Miscell. tumors = assay: Human tumor cloning system, miscellaneous tumors; type: cell-based; conditions: one hour, 10 specimens
Text: as §1

Breast tumor = assay: Human tumor cloning system, breast tumors; type: cell-based; conditions: one hour, 10 specimens
Text: as §1

human tumor cultures = assay: Human tumor cloning system, all tumors; type: cell-based; conditions: for Number of Tumors with 50% or Greater Decrease in Tumor Colony Forming Units: Totals, one hour, 54 specimens
Text: as §1

CD8F1 Mammary tumor = assay: Antitumor activity against CD8F1 mammary tumor in mice; type: in vivo, mouse; conditions: for Tumor Weight Inhibition % TWI: Sc every 7 days, Days 1,8,15,22,19
Description: The growth inhibition properties of 5-methyl-6-[[(3,4,5-trimethoxyphenyl)amino]methyl]-2,4-quinazolinediamine (trimetrexate) against several transplanted murine tumors were evaluated employing the antitumor screening program of the Drug Evaluation Branch of the National Cancer Institute. The protocols for these tests is described in Cancer Chemotherapy Reports, 3: 1-103 (1972). The dosing schedules are results from these tests appear in Table IV.
Mouse Mammary Tumor Was propagated in CD8F1 female mice as spontaneous tumors. Approximately 10^6 cells were then implanted subcutaneously into CD8F1 mice. […] At the end of the experiment (30 days), individual tumor weights were determined by caliper measurements. Each tumor weight was calculated as described previously for colon 26 and 38 tumors. A criterion of % T/C tumor weight of 42% or less was considered indicative of activity, with a reproducible 10% T/C tumor weight or less indicative of substantive activity.
In all of the mouse tumor studies described above, routine controls consisted of matching ten normal mice (with no tumors) to each tumor-bearing treatment group and injecting them with the same drug at the same dosages, schedules, days of administration, and drug route as the tumor-bearing mice. In this way, drug-induced toxicity (lethality and weight loss) could be clearly separated from the effects of the drug on the tumors.

cells in culture = assay: Concentration reached in cells in culture; type: cell-based; conditions: compared with methotrexate
[2] = test system: head and neck (squamous) cancers; assay: Phase I clinical trials, head and neck (squamous) cancers; type: in vivo, human; conditions: single agent
Description: Several Phase I clinical trials employing trimetrexate in human patients were carried out. In one study, 36 patients were treated with trimetrexate as a single agent at daily doses of 0.5 mg/m^2 /day to 12 mg/m^2 /day administered intravenously for five days.
In additional Phase I clinical studies, patients were administered trimetrexate with single intravenous doses ranging between 5 and 450 mg/m^2 and with weekly doses of slightly greater than 100 mg/m^2.

T-Cell 8402 = assay: Inhibition of T-Cell 8402 growth in vitro; type: cell-based, human; conditions: 48 h; Human T-Cell 8402; read-out: ED50 (the source's name)
Description: as §3, §4

L1210 cells = assay: Inhibition of L1210 cell growth in vitro; type: cell-based, murine
Description: as §2, §3
*ED50 = the concentration of drug required to reduce the cell count
to 50%, determined by plotting the cell count versus drug concentration.

AML K-562 = assay: Inhibition of AML K-562 cell growth in vitro; type: cell-based, human; conditions: K562, 48 h; Human AML K-562; read-out: ED50 (the source's name)
Description: as §3, §4

COc1cc(NCc2ccc3nc(N)nc(N)c3c2C)cc(OC)c1OC [Trimetrexate, 5-methyl-6-[[(3,4,5-trimethoxyphenyl)amino]methyl]-2,4-quinazolinediamine]
Number of Tumors with 50% or Greater Decrease in Tumor Colony Forming Units (Ovarian tumor; trimetrexate 0.1 μg/ml): 1
Number of Tumors with 50% or Greater Decrease in Tumor Colony Forming Units (Ovarian tumor; trimetrexate 1.0 μg/ml): 1
Number of Tumors with 50% or Greater Decrease in Tumor Colony Forming Units (Colon tumor; trimetrexate 0.1 μg/ml): 4
Number of Tumors with 50% or Greater Decrease in Tumor Colony Forming Units (Colon tumor; trimetrexate 1.0 μg/ml): 4
antitumor activity (Colon 38; mouse, in vivo): good activity
Tumor Weight Inhibition % TWI (Colon 38; optimal dose 60 mg/kg (dose range 60-1.88), Sc every 7 days, Days 2-9): 85%
IC50 (Walker-256): 5 nM
inhibition of dihydrofolate reductase (dihydrofolate reductase): potent inhibitor
patients with partial response ([1]; 38 evaluable patients, initial 8 mg/m^2/day iv Days 1-5 of 21-day cycle): Ten
partial response rate ([1]; 95% confidence interval 12-40%, evaluable patients): 26%
patients with stable disease ([1]; in vivo): Nineteen
median duration of response ([1]; range 4.1-59+ weeks, ten responders): 12.2 weeks
median time to progressive disease ([1]; range 9.3-74+ weeks): 19.1 weeks
Number of Tumors with 50% or Greater Decrease in Tumor Colony Forming Units (Miscell. tumors; trimetrexate 0.1 μg/ml): 2
Number of Tumors with 50% or Greater Decrease in Tumor Colony Forming Units (Miscell. tumors; trimetrexate 1.0 μg/ml): 1
Number of Tumors with 50% or Greater Decrease in Tumor Colony Forming Units (Breast tumor; trimetrexate 0.1 μg/ml): 0
Number of Tumors with 50% or Greater Decrease in Tumor Colony Forming Units (Breast tumor; trimetrexate 1.0 μg/ml): 2
Number of Tumors with 50% or Greater Decrease in Tumor Colony Forming Units (human tumor cultures; trimetrexate 0.1 μg/ml): 11
Number of Tumors with 50% or Greater Decrease in Tumor Colony Forming Units (human tumor cultures; trimetrexate 1.0 μg/ml): 13
human tumor cultures sensitive to trimetrexate and resistant to methotrexate (human tumor cultures; trimetrexate 0.1 μg/ml, methotrexate 0.3 μg/ml, 8/54): 15%
Tumor Weight Inhibition % TWI (CD8F1 Mammary tumor; optimal dose 120 mg/kg (dose range 120-3.75)): 100%
Tumor Weight Inhibition % TWI (CD8F1 Mammary tumor; optimal dose 180 mg/kg (dose range 270-35)): 100%
antitumor activity (CD8F1 Mammary tumor; subcutaneously implanted): good activity
concentration reached in cells in culture (cells in culture): higher concentration than methotrexate
patients with favorable responses [2]: two
IC50 (T-Cell 8402): 10 nM
inhibition of L1210 cell growth (L1210 cells): potent inhibitor of L1210 cell growth
IC50 (L1210 cells; Mus musculus, L1210, concentration required to reduce the cell count to 50%, 48 hours at 37° C, read-out: ED50 for L1210 Cells): 7 nM
IC50 (AML K-562): 10 nM
